This note sets out measurements from patent publication US11001564B2, “Substituted chromane-8-carboxamide compounds and analogues thereof, and methods using same” (priority 2016, dated 2021).

Counter-ions that a name gives are not always drawn.

Broadly, the EC50 is the concentration at which the effect is half-maximal.

In the first assay the test system is HBV rcDNA in HepDE19 cells. Briefly: HepDE19 assay with bDNA quantitation of HBV rcDNA. In kind it is cell-based, hepatitis B virus (HBV). The conditions noted are these: HepDE19 cells, 7 day incubation, rcDNA by Quantigene 2.0 bDNA assay; read-out: DE-19 bDNA EC50. The protocol: HepDE19 Assay with bDNA Quantitation of HBV rcDNA:
HepDE19 cell culture system is a HepG2 (human hepatocarcinoma) derived cell line that supports HBV DNA replication and cccDNA formation in a tetracycline (Tet)-regulated manner and produces HBV rcDNA and a detectable reporter molecule dependent on the production and maintenance of cccDNA (Guo, et al., 2007, J. Virol. 81:12472-12484).
HepDE19 (50,000 cells/well) were plated in 96 well collagen-coated tissue-culture treated microtiter plates in DMEM/F12 medium supplemented with 10% fetal bovine serum, 1% penicillin-streptomycin and 1 μg/mL tetracycline and incubated in a humidified incubator at 37° C. and 5% CO2 overnight. Next day, the cells were switched to fresh medium without tetracycline and incubated for 4 hours at 37° C. and 5% CO2. The cells were treated with fresh Tet-free medium with compounds at concentrations starting at 25 μM and a serial, ½ log, 8-point, titration series in duplicate. The final DMSO concentration in the assay was 0.5%. The plates were incubated for 7 days in a humidified incubator at 37° C. and 5% CO2. Following a 7 day-incubation, the level of rcDNA present in the inhibitor-treated wells was measured using a Quantigene 2.0 bDNA assay kit (Affymetrix, Santa Clara, Calif.) with HBV specific custom probe set and manufacturers instructions. Concurrently, the effect of compounds on cell viability was assessed using replicate plates, plated at a density of 5,000 cells/well and incubated for 4 days, to determine the ATP content as a measure of cell viability using the cell-titer glo reagent (CTG; Promega Corporation, Madison, Wis.) as per manufacturer's instructions. The plates were read using a Victor luminescence plate reader (PerkinElmer Model 1420 Multilabel counter) and the relative luminescence units (RLU) data generated from each well was calculated as % inhibition of the untreated control wells and analyzed using XL-Fit module in Microsoft Excel to determine EC50 and EC90 (bDNA) and CC50 (CTG) values using a 4-parameter curve fitting algorithm.
Representative compounds of the invention were tested for their ability to inhibit formation of relaxed circular DNA (rcDNA) in a HepDE19 assay, as described elsewhere herein.
In the case of `COC1CCOc2c(C(=O)Nc3ccc(F)c(F)c3)cccc21` (single isomer, unassigned) [Compound 7, N-(3,4-difluorophenyl)-4-methoxychromane-8-carboxamide], the EC50 is 1.8 µM.

In the case of `CN1CCC(NC(=O)OCc2ccccn2)c2cccc(C(=O)Nc3ccc(F)c(F)c3)c21` (single isomer, unassigned) [Compound 181, Pyridin-2-ylmethyl (8-((3,4-difluorophenyl)carbamoyl)-1-methyl-1,2,3,4-tetrahydroquinolin-4-yl)carbamate], the 50% effective concentration (EC50) was 2.5 µM.

As for `CN1CCC(NC(=O)OCc2ccccn2)c2cccc(C(=O)Nc3ccc(F)c(Cl)c3)c21` (single isomer, unassigned) [Compound 182, Pyridin-2-ylmethyl (8-((3-chloro-4-fluorophenyl)carbamoyl)-1-methyl-1,2,3,4-tetrahydroquinolin-4-yl)carbamate], the EC50 turned out to be 12 µM.

As for `CN1CCC(NC(=O)OCc2ccccn2)c2cccc(C(=O)Nc3ccc(F)c(F)c3)c21` (single isomer, unassigned) [Compound 180, Pyridin-2-ylmethyl (8-((3,4-difluorophenyl)carbamoyl)-1-methyl-1,2,3,4-tetrahydroquinolin-4-yl)carbamate], the EC50 turned out to be 15 µM.

The same assay, now with this note: Hepatitis B virus, HepDE19, 168 h, HepDE19 cells, 7 day incubation, rcDNA by Quantigene 2.0 bDNA assay; read-out: DE-19 bDNA EC50.
For `CC(C)(C)OC(=O)N[C@H]1CCOc2c(C(=O)Nc3ccc(F)c(Cl)c3)ccc(F)c21` [Compound 158, tert-Butyl (S)-(8-((3-chloro-4-fluorophenyl)carbamoyl)-5-fluorochroman-4-yl)carbamate], the concentration giving a half-maximal response (EC50) turned out to be 5.8 µM.

As to `Cc1cc(NC(=O)c2ccc(F)c3c2OCC[C@@H]3NC(=O)CCc2ccccn2)ccc1F` [Compound 151, (S)-5-Fluoro-N-(4-fluoro-3-methylphenyl)-4-(3-(pyridin-2-yl)propanamido)chromane-8-carboxamide], the EC50 is 0.56 µM.

As to `O=C(N[C@H]1CCOc2c(C(=O)Nc3ccc(F)c(F)c3)cccc21)OCc1ccccn1` [Compound 27, Pyridin-2-ylmethyl-(8-((3,4-difluorophenyl)carbamoyl)chroman-4-yl)carbamate], the EC50 worked out at 2.5 µM.

Turning to `O=C(N[C@H]1CCOc2c(C(=O)Nc3ccc(F)c(Cl)c3)cccc21)OCc1cnccn1` [Compound 112, Pyrazin-2-ylmethyl (S)-(8-((3-chloro-4-fluorophenyl)carbamoyl)chroman-4-yl)carbamate], the EC50 was determined as 0.77 µM.

With `Cc1cc(NC(=O)c2ccc(F)c3c2OCC[C@@H]3NC(=O)OC[C@H]2CCC(=O)N2)ccc1F` [Compound 136, ((R)-5-Oxopyrrolidin-2-yl)methyl ((S)-5-fluoro-8-((4-fluoro-3-methylphenyl)carbamoyl)chroman-4-yl)carbamate], the 50% effective concentration (EC50) stood at 1.2 µM.

With `COC(=O)N[C@H]1CCOc2c(C(=O)Nc3ccc(F)c(C(F)(F)F)c3)cccc21` [Compound 44, Methyl (S)-(8-((4-fluoro-3-(trifluoromethyl)phenyl)carbamoyl)chroman-4-yl)carbamate], the EC50 was found to be 3.5 µM.

Consider `O=C(N[C@H]1CCOc2c(C(=O)Nc3ccc(F)c(F)c3)ccc(F)c21)OCc1ccccn1` [Compound 93, Pyridin-2-ylmethyl (S)-(8-((3,4-difluorophenyl)carbamoyl)-5-fluorochroman-4-yl)carbamate], for which the 50% effective concentration (EC50) is 0.85 µM.

Consider `O=C(N[C@H]1CCOc2c(C(=O)Nc3ccc(F)c(F)c3)c(F)cc(F)c21)OCc1ccccn1` [Compound 124, pyridin-2-ylmethyl (S)-(8-((3,4-difluorophenyl)carbamoyl)-5,7-difluorochroman-4-yl)carbamate], for which the EC50 came to 25 µM.

Consider `COC(=O)N[C@H]1CCOc2c(C(=O)NCc3ccc(F)cc3)cccc21` [Compound 31, Methyl (S)-(8-((4-fluorobenzyl)carbamoyl)chroman-4-yl)carbamate], for which the EC50 was 17 µM.

For `O=C1CCOc2c1ccc(Cl)c2C(=O)Nc1ccc(F)c(F)c1` [Compound 77, 7-chloro-N-(3,4-difluorophenyl)-4-oxochromane-8-carboxamide], the concentration for a half-maximal effect (EC50) stood at 23 µM.

Turning to `O=C1CC[C@H](COC(=O)N[C@H]2CCOc3c(C(=O)Nc4ccc(F)c(Cl)c4)ccc(F)c32)N1` [Compound 155, ((R)-5-Oxopyrrolidin-2-yl)methyl ((S)-8-((3-chloro-4-fluorophenyl)carbamoyl)-5-fluorochroman-4-yl)carbamate], the concentration giving a half-maximal response (EC50) came to 1.2 µM.

With `O=C(N[C@H]1CCSc2c(C(=O)Nc3ccc(F)c(Cl)c3)ccc(F)c21)OCc1ccccn1` [Compound 172], the EC50 worked out at 2.9 µM.

Turning to `Cc1cc(NC(=O)c2ccc(F)c3c2OCC[C@@H]3NC(=O)OCCN2CCCC2=O)ccc1F` [Compound 143, 2-(2-Oxopyrrolidin-1-yl)ethyl (S)-(5-fluoro-8-((4-fluoro-3-methylphenyl)carbamoyl)chroman-4-yl)carbamate], the 50% effective concentration (EC50) worked out at 1.2 µM.

As for `O=C1CCOc2c1ccc(F)c2C(=O)Nc1ccc(F)c(Cl)c1` [Compound 65, N-(3-chloro-4-fluorophenyl)-7-fluoro-4-oxochromane-8-carboxamide], the EC50 is 4.1 µM.

For `O=C(N[C@H]1CCOc2c(C(=O)Nc3ccc(F)c(F)c3)cccc21)OCc1ccncc1` [Compound 29, Pyridin-4-ylmethyl-(8-((3,4-difluorophenyl)carbamoyl)chroman-4-yl)carbamate], the half-maximal effective concentration (EC50) is 2.2 µM.

For the molecule `O=C1CC[C@H](COC(=O)N[C@H]2CCOc3c(C(=O)Nc4ccc(F)c(F)c4)cccc32)N1` [Compound 119, ((R)-5-Oxopyrrolidin-2-yl)methyl ((S)-8-((3,4-difluorophenyl)carbamoyl)chroman-4-yl)carbamate], the EC50 came to 8.7 µM.

As for `CC[C@@H](C)OC1CCOc2c(C(=O)Nc3ccc(F)c(F)c3)cccc21` (stereo partly drawn) [Compound 14, 4-((R)-sec-butoxy)-N-(3,4-difluorophenyl)chromane-8-carboxamide], the concentration giving a half-maximal response (EC50) was found to be 6 µM.

`CC(=O)NCCOC(=O)N[C@H]1CCOc2c(C(=O)Nc3ccc(F)c(C)c3)ccc(F)c21` [Compound 146, 2-Acetamidoethyl (S)-(5-fluoro-8-((4-fluoro-3-methylphenyl)carbamoyl)chroman-4-yl)carbamate]: the EC50 is 0.61 µM.

Regarding `Cc1cc(NC(=O)c2ccc(F)c3c2OCC[C@@H]3NC(=O)OCc2cnccn2)ccc1F` [Compound 114, Pyrazin-2-ylmethyl (S)-(5-fluoro-8-((4-fluoro-3-methylphenyl)carbamoyl)chroman-4-yl)carbamate], the concentration for a half-maximal effect (EC50) came out at 0.5 µM.

For `O=C(N[C@H]1CCOc2c(C(=O)Nc3ccc(F)c(F)c3)cccc21)OCC1CCCCN1` (single isomer, unassigned) [Compound 85], the half-maximal effective concentration (EC50) came to 19 µM.

As for `O=C(Nc1ccc(F)c(F)c1)c1cccc2c1OCC[C@@H]2Nc1ccncn1` [Compound 67, (S)—N-(3,4-Difluorophenyl)-4-(pyrimidin-4-ylamino)chromane-8-carboxamide], the EC50 is 3.6 µM.

The same assay, now with this note: Hepatitis B virus, HepDE19, 168 h, read-out: DE-19 bDNA EC50, HepDE19 cells, 7 day incubation, rcDNA by Quantigene 2.0 bDNA assay.
For `CNC(=O)N[C@H]1CCOc2c(C(=O)Nc3ccc(F)c(F)c3)cccc21` [Compound 13, (S)—N-(3,4-difluorophenyl)-4-(3-methylureido) chromane-8-carboxamide], the EC50 stood at 2.3 µM.

Regarding `COC(=O)N[C@H]1CCOc2c1ccc(Cl)c2C(=O)Nc1ccc(F)c(F)c1` [Compound 83, Methyl (S)-(7-chloro-8-((3,4-difluorophenyl)carbamoyl)chroman-4-yl)carbamate], the concentration giving a half-maximal response (EC50) is 5.4 µM.

Take `O=C(N[C@H]1CCOc2c(C(=O)Nc3ccc(F)c(F)c3)cccc21)OCc1ccc(Cl)cn1` [Compound 88, (5-Chloropyridin-2-yl)methyl (S)-(8-((3,4-difluorophenyl)carbamoyl)chroman-4-yl)carbamate hydrochloride]: the EC50 was found to be 13 µM.

For the molecule `CNC(=O)N[C@H]1CCOc2c(C(=O)Nc3ccc(F)c(Cl)c3)ccc(F)c21` [Compound 104, (S)—N-(3-Chloro-4-fluorophenyl)-5-fluoro-4-(3-methylureido)chromane-8-carboxamide], the 50% effective concentration (EC50) was determined as 0.4 µM.

Consider `O=C(N[C@H]1CCOc2c(C(=O)Nc3ccc(F)c(F)c3)cccc21)OCc1cc(Cl)ccn1` [Compound 82, (4-Chloropyridin-2-yl)methyl (S)-(8-((3,4-difluorophenyl)carbamoyl)chroman-4-yl)carbamate hydrochloride], for which the EC50 is 3.2 µM.
